Test results published in patent US20160158258A1, “PREVENTION AND TREATMENT OF INFLAMMATORY CONDITIONS” (GLYCOREGIMMUNE, INC., priority 2014, published 2016).

How the values were obtained:
[1] = system: hepatic ischemia and reperfusion injury; settings: cited from earlier work
[2] = system: type I NKT cells; sulfatide/CD1d-tetramer+ cells; settings: after administration in vivo; cited from earlier work
ConA-induced hepatitis [3] = settings: description, no example; cited from earlier work
[4] = system: liver damage caused by alcohol consumption; settings: description, no example; cited from earlier work
[5] = system: chronic experimental autoimmune encephalomyelitis (EAE); assay: EAE, oral sulfatide; format: in vivo, B6 mice; settings: oral 200 micrograms for 7 days, starting one day before disease induction
Source text: However as shown in FIG. 6 oral treatment with sulfatide though inhibits disease initially when given orally but not very efficient. Without being limited by any theory, it is contemplated that sulfatide is not very stable in the gut, which is consistent with the observed low efficiency. With reference to FIG. 6, groups of B6 mice were orally treated with sulfatide (200 micrograms in 200 microliters in PBS) for 7 days, starting one day before the disease induction. Clinical paralysis was monitored daily and scored from 1 to 5. […] Without being limited by any theory, the observed similarity of both groups in consistent with instability of sulfatide in the gut.

[6] = system: chronic and relapsing experimental autoimmune encephalomyelitis (EAE); assay: chronic and relapsing EAE; format: in vivo, SJL mice
Method: Groups of SJL mice were orally gavaged with miltefosine (1 mg in 200 microliters of 10% DMSO/PBS) or control (DMSO/PBS), twice a week as indicated by arrows. Clinical severity of disease was monitored daily as paralysis in both groups of mice from scale 1 to 5 and shown.

[7] = system: conventional MHC-restricted CD4+ T cells; settings: description, no example; cited from earlier work
type I NKT cell = settings: description, no example; also in the absence of antigen-presenting cells; cited from earlier work
[8] = system: alcoholic liver diseases (ALD); assay: alcoholic liver disease, chronic plus binge EtOh feeding; format: in vivo, C57BL/6 mice
Source text: Groups of C57BL/6 mice were fed liquid alcohol (EtOh) diet or isocaloric control (control) diet for 10 day either containing miltefosine (˜500 micrograms per day) or DMSO/PBS. On day 11, 9 hr after the binge (chronic plus binge feeding), accumulation and activation of type I NKT cells (alpha-GalCer/CD1d^−tetramer^+ cells) or neutrophils (Ly^−6 G^+ CD11b^+) were examined in liver. As shown in FIG. 4A and FIG. 4B, in comparison to the control diet group, type I NKT cells accumulate into liver in mice fed liquid chronic plus binge EtOh diet. Also as shown in FIG. 4C and FIG. 4D, type I NKT cells become activated (as examined by the expression of CD69 cell surface expression in alpha-GalCer/CD1d-tetrame^+ cells) accompanied by accumulation of neutrophils (Ly^−6 G^+ CD11b^+ cells) into liver. Accumulation of activated type I NKT cells and neutrophils leads to inflammatory cascade resulting in heaptocyte injury during ALD.

type I NKT cells = assay: alpha-GalCer stimulation of splenocytes from orally treated mice; format: in vivo, B6 mice; settings: 1 mg oral gavage daily for 7 days; splenocytes cultured 90 hrs; 10 ng/ml alpha-GalCer
Method: Naïve B6 mice were treated every day for 7 days with DMSO (Control) or Miltefosine 1 mg (dissolved in DMSO and diluted into PBS), using oral gavage. Splenocytes were cultured in vitro for 90 hrs in the presence or absence of alpha-GalCer. Stimulation (as stimulation Index) and expansion of type I NKT cells (as FACS staining with alpha-GalCer/CD1d^−tetramer^+ cells) at 10 ng/ml of alpha-GalCer concentration is shown in both FIG. 2A and FIG. 2B.

[9] = system: type II NKT cell hybridoma, Hy19.3; assay: plate-bound CD1d assay: IL-2 from type II NKT cell hybridoma; format: cell-based; settings: CD1d coated plates incubated with lipid 6 hr; 50,000 cells/well; IL-2 measured 16 hr later
Method: (§1) The CD1d protein coated 96-well plates were incubated with the indicated lipids for 6 hr, washed and a type II NKT cell Hy 19.3 was added (50,000 cells/well) and IL-2 measured 16 hr later in the supernatant. LSF, lysosulftatide; LPC, lysophosphatidylcholine.

ConA-induced hepatitis [10] = assay: ConA-induced hepatitis; format: in vivo, BL/6 mice
Method: Groups of BL/6 mice were either administered with DMSO/PBS or miltefosine 12 hr before ConA administration and liver injury was determined by H&E staining of liver sections and liver enzymes, such as ALT in serum examined 24 hr later (FIG. 3A and FIG. 3B). Data shown are representative of 2 independent experiments.

CD1d = target: T1, CD1d (Mus musculus, UniProt P11609); assay: plate-bound CD1d assay: binding to CD1d; settings: concluded from plate-bound CD1d assay
T1 sequence (P11609 19-297 limits assumed): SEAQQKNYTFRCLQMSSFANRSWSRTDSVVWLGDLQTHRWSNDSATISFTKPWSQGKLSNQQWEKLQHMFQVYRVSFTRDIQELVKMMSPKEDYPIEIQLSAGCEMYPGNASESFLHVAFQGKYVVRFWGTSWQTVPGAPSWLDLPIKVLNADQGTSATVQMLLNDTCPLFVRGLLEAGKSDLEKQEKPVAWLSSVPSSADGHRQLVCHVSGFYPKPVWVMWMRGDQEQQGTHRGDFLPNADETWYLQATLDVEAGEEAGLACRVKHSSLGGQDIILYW
T1 sequence (P01887 21-119 partner): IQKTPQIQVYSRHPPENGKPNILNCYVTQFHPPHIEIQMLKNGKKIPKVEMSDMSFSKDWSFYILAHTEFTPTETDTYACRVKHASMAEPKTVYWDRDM
Method: as §1

liver mononuclear cells = assay: flow cytometry of liver mononuclear cells after oral treatment; format: in vivo, SJL/J mice; settings: 1 mg orally before and during disease; day 59
Method: Groups of female SJL/J mice were administered orally with 1 mg of miltefosine as shown in the FIG. 2, before and during the course of disease. Mice were sacrificed on day 59.

[11] = ~500 micrograms per day in EtOh diet 10 day, day 11, 9 hr after binge

Compound: 3′-sulfogalactosyl ceramide [sulfatide]
- secretion of IFN-gamma by hepatic type I NKT cells ([1]; early phase of ischemia and reperfusion injury, vs untreated animals): significantly decreased
- liver injury following ischemia/reperfusion ([1]; mice treated with sulfatide): significantly reduced
- in vitro proliferation of type I NKT cells in response to alpha-GalCer [2]: suppress in vitro proliferation of type I NKT cells
- percentage of sulfatide/CD1d-tetramer+ cells with intracytoplasmic IFN-gamma staining [2]: increase the percentage of sulfatide/CD1d-tetramer+ cells with intracytoplasmic IFN-gamma staining
- protection against ConA-induced hepatitis (hepatocellular necrosis, serum ALT and AST) (ConA-induced hepatitis [3]): can protect against Concanavalin A (ConA)-induced hepatitis
- liver damage following excess alcohol consumption [4]: almost complete protection from liver damage
- duration of initial protection from clinical paralysis [5]: 4 to 5 days
- chronic and relapsing EAE ([6]; SJL/J mice, route not stated): significant inhibition

Compound: CC1=C(/C=C/C(C)=C/C=C/C(C)=C/C(=O)O)C(C)(C)CCC1 [ATRA, all trans retinoic acid]
- activity of conventional MHC-restricted CD4+ T cells that recognize protein antigens [7]: does not directly inhibit
- type I NKT cell effector function, including cytokine secretion (type I NKT cell): inhibits type I NKT cell effector function
- liver damage following excess alcohol consumption [4]: significantly inhibits liver damage

Compound: CCCCCCCCCCCCCCCCOP(=O)([O-])OCC[N+](C)(C)C [miltefosine]
- liver injury ([8]; ~500 micrograms per day in EtOh diet): protection from liver injury
- accumulation of type I NKT cells in liver [8, 11]: inhibited accumulation of type I NKT cells
- levels of activated (CD69+) type I NKT cells in liver [8, 11]: reduced levels of activated (CD69^+) NKT cells
- levels of neutrophils (Ly-6G+ CD11b+) in liver [8, 11]: reduced levels of neutrophils
- type I NKT cells proliferation and expansion in the presence of alpha-GalCer (type I NKT cells): significant inhibition
- stimulation of type II NKT cell hybridoma Hy19.3 (IL-2 in the supernatant) [9]: able to stimulate
- serum levels of ALT (ConA-induced hepatitis [10]; given 12 hours before ConA, 24 hours later): reduced serum levels of ALT
- liver injury following Con A injection (ConA-induced hepatitis [10]; given 12 hr before ConA): significant inhibition of liver injury
- necrosis, H&E staining of liver sections (ConA-induced hepatitis [10]; given 12 hr before ConA): decreased necrosis
- binding to CD1d molecules (CD1d): can bind to CD1d molecules
- clinical severity of disease (paralysis, scale 1 to 5) ([6]; oral gavage 1 mg twice a week): can be treated with miltefosine
- other CD4+ and CD8αβ+ T cells in liver, control vs. treated (liver mononuclear cells): not different
- regulatory CD8αα+ T cells in liver (liver mononuclear cells): significantly increased
